# From patent US9938272B2, “Hydrazine compound as blood coagulation factor Xa inhibitor” (NORTH CHINA PHARMACEUTICAL COMPANY., LTD., priority 2014, dated 2018)
# Assays:
# [1] = terminal phase; cited from earlier work
# human Factor Xa = human Factor Xa (Homo sapiens (Human), UniProt P00742); assay: Human factor Xa chromogenic assay; format: biochemical; details: substrate S-2222, read-out: hfXa Ki
# rat Factor Xa = rat Factor Xa (Rattus norvegicus (Rat), UniProt Q63207); assay: Rat factor Xa chromogenic assay; format: biochemical; details: substrate S-2222, read-out: rfXa Ki
# rat Factor Xa, sequence (Q63207 232-482): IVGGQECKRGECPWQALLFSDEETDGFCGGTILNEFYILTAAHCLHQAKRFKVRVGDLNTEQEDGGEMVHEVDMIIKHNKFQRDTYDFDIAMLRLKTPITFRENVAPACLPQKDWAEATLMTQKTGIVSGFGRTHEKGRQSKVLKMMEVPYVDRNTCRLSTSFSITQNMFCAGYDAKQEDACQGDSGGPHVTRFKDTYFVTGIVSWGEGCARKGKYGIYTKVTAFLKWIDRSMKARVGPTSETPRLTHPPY
# rat Factor Xa, sequence (Q63207 41-180): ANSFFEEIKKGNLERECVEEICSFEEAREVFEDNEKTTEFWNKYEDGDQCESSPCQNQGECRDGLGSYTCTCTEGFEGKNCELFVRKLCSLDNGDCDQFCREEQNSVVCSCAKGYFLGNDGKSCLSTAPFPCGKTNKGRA
# human thrombin = human thrombin (Homo sapiens (Human), UniProt P00734); assay: Human thrombin assay; format: biochemical; details: substrate S-2238
# human trypsin = human trypsin (Homo sapiens, UniProt P07477); assay: Human trypsin assay; format: biochemical; details: substrate S-2222
# prothrombinase = prothrombinase (Homo sapiens (Human), UniProt P00742); assay: Prothrombinase assay (thrombin generation); format: biochemical; details: human factor Xa with human platelets, prothrombin, substrate S-2238
# prothrombinase, sequence (P00742 235-488): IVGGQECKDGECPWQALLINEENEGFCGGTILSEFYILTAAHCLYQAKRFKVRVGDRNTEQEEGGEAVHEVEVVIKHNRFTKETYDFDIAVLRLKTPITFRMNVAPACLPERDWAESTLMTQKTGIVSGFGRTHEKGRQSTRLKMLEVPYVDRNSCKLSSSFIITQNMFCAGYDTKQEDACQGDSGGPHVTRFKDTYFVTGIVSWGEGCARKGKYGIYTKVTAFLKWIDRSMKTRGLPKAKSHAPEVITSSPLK
# prothrombinase, sequence (P00742 41-179): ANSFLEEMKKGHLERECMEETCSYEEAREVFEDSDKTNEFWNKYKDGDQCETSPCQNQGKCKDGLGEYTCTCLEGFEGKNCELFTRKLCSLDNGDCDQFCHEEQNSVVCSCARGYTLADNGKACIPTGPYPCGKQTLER
# prothrombinase, sequence (P12259 29-737 partner): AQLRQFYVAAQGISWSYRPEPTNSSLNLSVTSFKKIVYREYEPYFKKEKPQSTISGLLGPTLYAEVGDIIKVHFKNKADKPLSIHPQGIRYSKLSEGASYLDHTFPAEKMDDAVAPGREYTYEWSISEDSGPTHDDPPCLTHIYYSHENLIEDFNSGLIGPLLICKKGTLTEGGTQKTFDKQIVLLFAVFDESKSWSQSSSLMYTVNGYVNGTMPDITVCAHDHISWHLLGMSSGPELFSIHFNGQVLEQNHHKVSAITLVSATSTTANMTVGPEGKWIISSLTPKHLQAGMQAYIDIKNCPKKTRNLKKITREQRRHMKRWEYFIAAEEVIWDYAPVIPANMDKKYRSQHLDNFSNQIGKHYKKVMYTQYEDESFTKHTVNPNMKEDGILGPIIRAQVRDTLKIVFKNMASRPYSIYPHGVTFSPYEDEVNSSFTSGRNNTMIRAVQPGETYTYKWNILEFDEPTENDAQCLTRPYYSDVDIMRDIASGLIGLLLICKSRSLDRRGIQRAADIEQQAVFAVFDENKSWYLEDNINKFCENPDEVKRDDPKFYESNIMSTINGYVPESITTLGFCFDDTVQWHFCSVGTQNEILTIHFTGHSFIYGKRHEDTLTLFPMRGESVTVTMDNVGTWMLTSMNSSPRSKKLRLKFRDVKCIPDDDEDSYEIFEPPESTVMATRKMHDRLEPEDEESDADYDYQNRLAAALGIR
# prothrombinase, sequence (P12259 1574-2224 partner): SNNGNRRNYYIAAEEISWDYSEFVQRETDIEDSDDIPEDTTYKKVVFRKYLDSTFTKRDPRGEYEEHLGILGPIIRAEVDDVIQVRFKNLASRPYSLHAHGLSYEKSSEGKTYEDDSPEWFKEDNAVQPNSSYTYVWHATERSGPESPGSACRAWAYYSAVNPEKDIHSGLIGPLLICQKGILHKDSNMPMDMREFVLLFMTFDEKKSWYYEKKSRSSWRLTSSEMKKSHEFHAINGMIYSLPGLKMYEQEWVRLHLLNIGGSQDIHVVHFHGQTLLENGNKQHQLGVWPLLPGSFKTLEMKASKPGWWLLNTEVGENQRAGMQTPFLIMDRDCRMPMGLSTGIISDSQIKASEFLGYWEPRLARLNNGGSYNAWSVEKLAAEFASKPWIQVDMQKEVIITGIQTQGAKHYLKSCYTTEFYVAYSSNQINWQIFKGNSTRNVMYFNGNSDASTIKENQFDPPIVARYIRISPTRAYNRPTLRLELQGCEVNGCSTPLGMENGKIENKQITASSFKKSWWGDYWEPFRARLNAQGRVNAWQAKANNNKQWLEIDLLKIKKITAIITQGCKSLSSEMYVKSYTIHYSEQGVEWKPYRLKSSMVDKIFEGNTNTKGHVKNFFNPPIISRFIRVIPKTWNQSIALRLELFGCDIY
# [2] = cited from earlier work
# human Factor Xa, sequence (P00742 235-488): as the sequence (P00742 235-488) above
# human Factor Xa, sequence (P00742 41-179): as the sequence (P00742 41-179) above
Structure (SMILES),Ki (human Factor Xa),Ki (rat Factor Xa),Ki (human thrombin),Ki (human trypsin),Ki (prothrombinase),mean elimination t½ [1],water solubility [2]
"COc1ccc(-n2nc(C(N)=O)c3c2C(=O)N(c2ccc(N4CCCCC4=O)cc2)CC3)cc1 [Apixaban, apixaban]",,,,,,8 to 15 h,
"O=C1c2c(c(C(F)(F)F)nn2-c2ccc(OC(F)F)cc2)CCN1C1CCN(N2CCOCC2=O)CC1 [Example 23, 4-(4-(1-(4-(Difluoromethoxy)phenyl)-7-oxo-3-(trifluoromethyl)-4,5-dihydro-1H-pyrazolo[3,4-c]pyridin-6(7H)-yl)piperidin-1-yl)morpholin-3-one]",≤ 10 nM,10 to 50 nM,≥ 1000 nM,≥ 1000 nM,≤ 10 nM,,
"O=C1c2c(c(C(F)(F)F)nn2-c2ccc3cc(Cl)ccc3c2)CCN1C1CCN(N2CCOCC2=O)CC1 [Example 24, 4-(4-(1-(6-Chloronaphthalen-2-yl)-7-oxo-3-(trifluoromethyl)-4,5-dihydro-1H-pyrazolo[3,4-c]pyridin-6(7H)-yl)piperidin-1-yl)morpholin-3-one]",≤ 10 nM,≤ 10 nM,≥ 1000 nM,≥ 1000 nM,≤ 10 nM,,
O=C(NC[C@H]1CN(c2ccc(N3CCOCC3=O)cc2)C(=O)O1)c1ccc(Cl)s1 [rivaroxaban],,,,,,,limited

# The next lines start with results.
Ki (human Factor Xa),Ki (rat Factor Xa),Ki (human thrombin),Ki (human trypsin),Ki (prothrombinase),Structure (SMILES),mean elimination t½ [1],water solubility [2]
≤ 10 nM,50 to 1000 nM,≥ 1000 nM,≥ 1000 nM,≤ 10 nM,"COc1ccc(-n2nc(C(N)=O)c3c2C(=O)N(N2CCC(N4CCCCC4=O)CC2)CC3)cc1 [Example 14, 1-(4-Methoxyphenyl)-7-oxo-6-(2-oxo-[1,4′-bipiperidin]-1′-yl)-4,5,6,7-tetrahydro-1H-pyrazolo[3,4-c]pyridine-3-carboxamide]",,
≤ 10 nM,≤ 10 nM,≥ 1000 nM,≥ 1000 nM,≤ 10 nM,"Nc1noc2ccc(-n3nc(C(F)(F)F)c4c3C(=O)N(C3CCN(N5CCOCC5=O)CC3)CC4)cc12 [Example 26, 4-(4-(1-(3-Aminobenzo[d]isoxazol-5-yl)-7-oxo-3-(trifluoromethyl)-4,5-dihydro-1H-pyrazolo[3,4-c]pyridin-6(7H)-yl)piperidin-1-yl)morpholin-3-one]",,
≤ 10 nM,≤ 10 nM,≥ 1000 nM,≥ 1000 nM,≤ 10 nM,"COc1ccc(-n2nc(C(F)(F)F)c3c2C(=O)N(C2CCN(N4CCOCC4=O)CC2)CC3)cc1F [Example 28, 4-(4-(1-(3-Fluoro-4-methoxyphenyl)-7-oxo-3-(trifluoromethyl)-4,5-dihydro-1H-pyrazolo[3,4-c]pyridin-6(7H)-yl)piperidin-1-yl)morpholin-3-one]",,
≤ 10 nM,≤ 10 nM,≥ 1000 nM,≥ 1000 nM,≤ 10 nM,"O=C1c2c(c(C(F)(F)F)nn2-c2cc3ccccc3cc2F)CCN1C1CCN(N2CCOCC2=O)CC1 [Example 29, 4-(4-(1-(3-Fluoronaphthalen-2-yl)-7-oxo-3-(trifluoromethyl)-4,5-dihydro-1H-pyrazolo[3,4-c]pyridin-6(7H)-yl)piperidin-1-yl)morpholin-3-one]",,
≤ 10 nM,10 to 50 nM,≥ 1000 nM,≥ 1000 nM,10 to 50 nM,"NC(=O)c1cccc(-n2nc(C(F)(F)F)c3c2C(=O)N(C2CCN(N4CCOCC4=O)CC2)CC3)c1 [Example 31, 3-(7-Oxo-6-(1-(3-oxomorpholino)piperidin-4-yl)-3-(trifluoromethyl)-4,5,6,7-tetrahydro-1H-pyrazolo[3,4-c]pyridin-1-yl)benzamide]",,
